How the values were obtained:
[1] = tested on: ALK tyrosine kinase receptor (Homo sapiens), Q9UM73 [C1156Y]; details: Compound concentration 1000.0 nM
[2] = molecular target: Mitogen-activated protein kinase kinase kinase 6 (Homo sapiens) (UniProt O95382); details: Compound concentration 1000.0 nM
[3] = molecular target: Aurora kinase B (Homo sapiens) (UniProt Q96GD4); details: Compound concentration 1000.0 nM
[4] = molecular target: Calcium/calmodulin-dependent protein kinase type 1B (Homo sapiens) (UniProt Q6P2M8); details: Compound concentration 1000.0 nM
[5] = molecular target: Calcium/calmodulin-dependent protein kinase type 1D (Homo sapiens) (UniProt Q8IU85); details: Compound concentration 1000.0 nM
[6] = molecular target: Calcium/calmodulin-dependent protein kinase kinase 2 (Homo sapiens) (UniProt Q96RR4); details: Compound concentration 1000.0 nM
[7] = molecular target: Cyclin-dependent kinase 8 (Homo sapiens) (UniProt P49336); details: Compound concentration 1000.0 nM
[8] = molecular target: Cyclin-dependent kinase-like 5 (Homo sapiens) (UniProt O76039); details: Compound concentration 1000.0 nM
[9] = molecular target: Dual specificity protein kinase CLK2 (Homo sapiens) (UniProt P49760); details: Compound concentration 1000.0 nM
[10] = molecular target: Death-associated protein kinase 3 (Homo sapiens) (UniProt O43293); details: Compound concentration 1000.0 nM
[11] = molecular target: Serine/threonine-protein kinase DCLK2 (Homo sapiens) (UniProt Q8N568); details: Compound concentration 1000.0 nM
[12] = molecular target: Myotonin-protein kinase (Homo sapiens) (UniProt Q09013); details: Compound concentration 1000.0 nM
[13] = molecular target: Ephrin type-A receptor 1 (Homo sapiens) (UniProt P21709); details: Compound concentration 1000.0 nM
[14] = molecular target: Ephrin type-A receptor 3 (Homo sapiens) (UniProt P29320); details: Compound concentration 1000.0 nM
[15] = molecular target: Ephrin type-B receptor 2 (Homo sapiens) (UniProt P29323); details: Compound concentration 1000.0 nM
[16] = tested on: Receptor-type tyrosine-protein kinase FLT3 (Homo sapiens), P36888 [N841I]; details: Compound concentration 1000.0 nM
[17] = molecular target: Beta-adrenergic receptor kinase 1 (Homo sapiens) (UniProt P25098); details: Compound concentration 1000.0 nM
[18] = molecular target: Insulin-like growth factor 1 receptor (Homo sapiens) (UniProt P08069); details: Compound concentration 1000.0 nM
[19] = molecular target: Insulin receptor (Homo sapiens) (UniProt P06213); details: Compound concentration 1000.0 nM
[20] = molecular target: Interleukin-1 receptor-associated kinase 1 (Homo sapiens) (UniProt P51617); details: Compound concentration 1000.0 nM
[21] = molecular target: Interleukin-1 receptor-associated kinase 3 (Homo sapiens) (UniProt Q9Y616); details: Compound concentration 1000.0 nM
[22] = molecular target: Tyrosine-protein kinase JAK3 (Homo sapiens) (UniProt P52333); details: Compound concentration 1000.0 nM
[23] = molecular target: Mast/stem cell growth factor receptor Kit (Homo sapiens) (UniProt P10721); details: Compound concentration 1000.0 nM
[24] = molecular target: LIM domain kinase 2 (Homo sapiens) (UniProt P53671); details: Compound concentration 1000.0 nM
[25] = molecular target: Mitogen-activated protein kinase kinase kinase 1 (Homo sapiens) (UniProt Q13233); details: Compound concentration 1000.0 nM
[26] = molecular target: Mitogen-activated protein kinase kinase kinase 15 (Homo sapiens) (UniProt Q6ZN16); details: Compound concentration 1000.0 nM
[27] = molecular target: Serine/threonine-protein kinase MRCK beta (Homo sapiens) (UniProt Q9Y5S2); details: Compound concentration 1000.0 nM
[28] = molecular target: Serine/threonine-protein kinase 24 (Homo sapiens) (UniProt Q9Y6E0); details: Compound concentration 1000.0 nM
[29] = molecular target: Myosin-IIIa (Homo sapiens) (UniProt Q8NEV4); details: Compound concentration 1000.0 nM
[30] = molecular target: Phosphatidylinositol 4-phosphate 3-kinase C2 domain-containing subunit beta (Homo sapiens) (UniProt O00750); details: Compound concentration 1000.0 nM
[31] = tested on: Phosphatidylinositol 4,5-bisphosphate 3-kinase catalytic subunit alpha isoform (Homo sapiens), P42336 [C420R]; details: Compound concentration 1000.0 nM
[32] = molecular target: Serine/threonine-protein kinase pim-1 (Homo sapiens) (UniProt P11309); details: Compound concentration 1000.0 nM
[33] = molecular target: Phosphatidylinositol 5-phosphate 4-kinase type-2 gamma (Homo sapiens) (UniProt Q8TBX8); details: Compound concentration 1000.0 nM
[34] = molecular target: Serine/threonine-protein kinase D2 (Homo sapiens) (UniProt Q9BZL6); details: Compound concentration 1000.0 nM
[35] = molecular target: Ribosomal protein S6 kinase alpha-3 (Homo sapiens) (UniProt P51812); details: Compound concentration 1000.0 nM
[36] = molecular target: Ribosomal protein S6 kinase alpha-6 (Homo sapiens) (UniProt Q9UK32); details: Compound concentration 1000.0 nM
[37] = molecular target: SRSF protein kinase 2 (Homo sapiens) (UniProt P78362); details: Compound concentration 1000.0 nM
[38] = molecular target: Serine/threonine-protein kinase TAO2 (Homo sapiens) (UniProt Q9UL54); details: Compound concentration 1000.0 nM
[39] = molecular target: Tyrosine-protein kinase receptor Tie-1 (Homo sapiens) (UniProt P35590); details: Compound concentration 1000.0 nM
[40] = molecular target: TRAF2 and NCK-interacting protein kinase (Homo sapiens) (UniProt Q9UKE5); details: Compound concentration 1000.0 nM
[41] = molecular target: High affinity nerve growth factor receptor (Homo sapiens) (UniProt P04629); details: Compound concentration 1000.0 nM
[42] = molecular target: Transient receptor potential cation channel subfamily M member 6 (Homo sapiens) (UniProt Q9BX84); details: Compound concentration 1000.0 nM
[43] = molecular target: Testis-specific serine/threonine-protein kinase 3 (Homo sapiens) (UniProt Q96PN8); details: Compound concentration 1000.0 nM
[44] = molecular target: 5-hydroxytryptamine receptor 5A (Homo sapiens) (UniProt P47898); details: Compound concentration 10.0 uM
[45] = molecular target: D(1A) dopamine receptor (Homo sapiens) (UniProt P21728); details: Compound concentration 10.0 uM

Chain of High affinity nerve growth factor receptor (Homo sapiens) (P04629 33-796 limits assumed): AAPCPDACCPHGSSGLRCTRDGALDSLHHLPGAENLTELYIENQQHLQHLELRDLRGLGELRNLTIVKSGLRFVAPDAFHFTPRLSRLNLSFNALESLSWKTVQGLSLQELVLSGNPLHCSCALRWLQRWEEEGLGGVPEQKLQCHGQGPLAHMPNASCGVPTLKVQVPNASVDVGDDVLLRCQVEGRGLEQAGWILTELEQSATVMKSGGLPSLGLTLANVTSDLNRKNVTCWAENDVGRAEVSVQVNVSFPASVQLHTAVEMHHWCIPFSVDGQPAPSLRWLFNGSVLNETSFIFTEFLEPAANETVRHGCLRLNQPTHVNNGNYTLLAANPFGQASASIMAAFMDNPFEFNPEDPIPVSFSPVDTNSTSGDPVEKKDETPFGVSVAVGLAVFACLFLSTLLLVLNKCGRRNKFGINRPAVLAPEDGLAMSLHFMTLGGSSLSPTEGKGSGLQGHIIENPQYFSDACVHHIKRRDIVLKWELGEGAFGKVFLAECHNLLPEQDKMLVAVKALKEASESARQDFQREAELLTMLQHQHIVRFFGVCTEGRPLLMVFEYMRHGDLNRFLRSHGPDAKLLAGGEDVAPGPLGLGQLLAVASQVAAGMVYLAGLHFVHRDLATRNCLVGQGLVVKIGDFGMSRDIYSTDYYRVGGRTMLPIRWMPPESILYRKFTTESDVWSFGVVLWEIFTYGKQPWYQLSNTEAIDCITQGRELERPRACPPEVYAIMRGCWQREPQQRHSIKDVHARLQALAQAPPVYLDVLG
Chain of Cyclin-dependent kinase 8 (Homo sapiens) (P49336 whole entry): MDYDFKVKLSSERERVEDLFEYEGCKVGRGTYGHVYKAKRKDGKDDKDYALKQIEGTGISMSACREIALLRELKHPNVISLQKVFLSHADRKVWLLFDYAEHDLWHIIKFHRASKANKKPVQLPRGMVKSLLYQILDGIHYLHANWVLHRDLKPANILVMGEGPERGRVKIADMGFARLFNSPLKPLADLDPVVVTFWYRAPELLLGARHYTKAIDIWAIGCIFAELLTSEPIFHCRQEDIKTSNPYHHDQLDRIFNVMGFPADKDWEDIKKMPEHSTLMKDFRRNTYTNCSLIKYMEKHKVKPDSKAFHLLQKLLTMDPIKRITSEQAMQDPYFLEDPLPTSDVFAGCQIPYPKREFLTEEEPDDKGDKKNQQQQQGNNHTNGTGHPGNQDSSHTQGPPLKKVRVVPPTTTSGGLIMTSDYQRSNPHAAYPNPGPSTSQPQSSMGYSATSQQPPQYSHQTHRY
Chain of Phosphatidylinositol 4,5-bisphosphate 3-kinase catalytic subunit alpha isoform (Homo sapiens), P42336 [C420R] (P42336 whole entry C420R, canonical isoform): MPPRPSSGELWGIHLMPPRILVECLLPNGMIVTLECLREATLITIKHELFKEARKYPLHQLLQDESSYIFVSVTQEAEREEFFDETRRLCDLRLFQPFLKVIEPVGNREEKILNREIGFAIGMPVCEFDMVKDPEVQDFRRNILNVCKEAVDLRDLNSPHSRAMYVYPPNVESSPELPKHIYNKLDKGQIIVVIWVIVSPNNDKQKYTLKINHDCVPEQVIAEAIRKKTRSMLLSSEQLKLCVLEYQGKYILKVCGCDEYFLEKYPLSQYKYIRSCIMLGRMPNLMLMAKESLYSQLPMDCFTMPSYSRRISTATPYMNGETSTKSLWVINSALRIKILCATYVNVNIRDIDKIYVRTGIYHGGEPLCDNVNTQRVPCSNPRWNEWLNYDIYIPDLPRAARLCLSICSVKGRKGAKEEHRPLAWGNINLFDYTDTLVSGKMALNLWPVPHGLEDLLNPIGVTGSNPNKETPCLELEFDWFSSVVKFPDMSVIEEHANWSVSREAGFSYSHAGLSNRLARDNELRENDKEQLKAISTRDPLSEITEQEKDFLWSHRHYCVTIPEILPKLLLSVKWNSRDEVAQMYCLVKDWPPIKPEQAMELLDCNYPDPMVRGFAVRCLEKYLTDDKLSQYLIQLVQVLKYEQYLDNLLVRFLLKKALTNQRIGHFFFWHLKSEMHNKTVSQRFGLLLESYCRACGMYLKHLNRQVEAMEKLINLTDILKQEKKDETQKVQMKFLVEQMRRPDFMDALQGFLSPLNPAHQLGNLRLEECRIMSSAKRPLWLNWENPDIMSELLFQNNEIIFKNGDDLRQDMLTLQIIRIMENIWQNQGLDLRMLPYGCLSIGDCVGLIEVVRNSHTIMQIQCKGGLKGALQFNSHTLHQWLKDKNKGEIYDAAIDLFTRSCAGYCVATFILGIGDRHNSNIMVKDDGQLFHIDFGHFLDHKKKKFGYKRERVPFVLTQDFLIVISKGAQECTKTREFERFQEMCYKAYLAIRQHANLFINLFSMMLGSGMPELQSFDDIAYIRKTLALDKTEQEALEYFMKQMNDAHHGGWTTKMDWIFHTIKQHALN
Chain of Insulin receptor (Homo sapiens) (P06213 28-758 limits assumed): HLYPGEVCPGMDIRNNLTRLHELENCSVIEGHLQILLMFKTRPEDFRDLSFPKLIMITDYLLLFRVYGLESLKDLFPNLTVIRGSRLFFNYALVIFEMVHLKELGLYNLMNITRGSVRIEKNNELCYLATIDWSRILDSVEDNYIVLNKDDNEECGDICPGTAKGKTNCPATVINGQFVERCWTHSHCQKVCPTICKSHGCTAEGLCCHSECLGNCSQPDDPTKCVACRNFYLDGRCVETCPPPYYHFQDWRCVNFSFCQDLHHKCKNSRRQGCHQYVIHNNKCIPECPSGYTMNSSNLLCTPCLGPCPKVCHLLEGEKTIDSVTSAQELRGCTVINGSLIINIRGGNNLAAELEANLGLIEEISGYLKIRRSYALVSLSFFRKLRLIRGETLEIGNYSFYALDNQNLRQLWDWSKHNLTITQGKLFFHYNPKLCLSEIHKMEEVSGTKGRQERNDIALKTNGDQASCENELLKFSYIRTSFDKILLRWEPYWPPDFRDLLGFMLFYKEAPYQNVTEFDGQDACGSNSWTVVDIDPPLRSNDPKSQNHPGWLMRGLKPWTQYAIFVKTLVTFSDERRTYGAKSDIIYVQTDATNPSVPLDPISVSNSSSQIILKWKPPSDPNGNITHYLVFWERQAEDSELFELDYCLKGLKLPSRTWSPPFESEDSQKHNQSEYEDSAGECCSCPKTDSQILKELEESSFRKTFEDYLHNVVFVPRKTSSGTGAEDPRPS
Chain of Insulin receptor (Homo sapiens) (P06213 763-1382 limits assumed): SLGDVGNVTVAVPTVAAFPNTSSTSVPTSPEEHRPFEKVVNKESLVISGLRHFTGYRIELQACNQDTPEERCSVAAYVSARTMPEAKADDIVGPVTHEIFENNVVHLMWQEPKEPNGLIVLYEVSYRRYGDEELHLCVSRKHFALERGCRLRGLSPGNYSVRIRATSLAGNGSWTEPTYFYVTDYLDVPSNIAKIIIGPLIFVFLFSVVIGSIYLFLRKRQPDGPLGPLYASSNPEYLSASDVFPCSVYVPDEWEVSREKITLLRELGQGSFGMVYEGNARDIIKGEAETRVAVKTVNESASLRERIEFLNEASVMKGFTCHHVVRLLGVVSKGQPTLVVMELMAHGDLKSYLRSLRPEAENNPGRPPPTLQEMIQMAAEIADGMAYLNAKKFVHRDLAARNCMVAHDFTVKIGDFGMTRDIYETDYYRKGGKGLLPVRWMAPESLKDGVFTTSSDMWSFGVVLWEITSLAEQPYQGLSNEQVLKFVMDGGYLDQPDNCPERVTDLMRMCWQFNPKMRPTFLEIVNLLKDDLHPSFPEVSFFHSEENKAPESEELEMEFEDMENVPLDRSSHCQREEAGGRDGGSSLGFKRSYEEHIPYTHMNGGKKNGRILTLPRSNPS
Chain of Serine/threonine-protein kinase pim-1 (Homo sapiens) (P11309 whole entry, looked up): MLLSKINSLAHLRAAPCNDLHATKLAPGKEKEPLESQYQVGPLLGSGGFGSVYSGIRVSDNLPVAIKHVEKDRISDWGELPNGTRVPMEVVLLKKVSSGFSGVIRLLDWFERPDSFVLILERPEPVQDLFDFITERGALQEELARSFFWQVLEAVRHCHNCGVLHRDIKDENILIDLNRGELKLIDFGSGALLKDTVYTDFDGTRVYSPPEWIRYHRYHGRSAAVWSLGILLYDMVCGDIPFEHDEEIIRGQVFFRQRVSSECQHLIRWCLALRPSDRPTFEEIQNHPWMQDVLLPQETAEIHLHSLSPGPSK
Chain of 5-hydroxytryptamine receptor 5A (Homo sapiens) (P47898 whole entry): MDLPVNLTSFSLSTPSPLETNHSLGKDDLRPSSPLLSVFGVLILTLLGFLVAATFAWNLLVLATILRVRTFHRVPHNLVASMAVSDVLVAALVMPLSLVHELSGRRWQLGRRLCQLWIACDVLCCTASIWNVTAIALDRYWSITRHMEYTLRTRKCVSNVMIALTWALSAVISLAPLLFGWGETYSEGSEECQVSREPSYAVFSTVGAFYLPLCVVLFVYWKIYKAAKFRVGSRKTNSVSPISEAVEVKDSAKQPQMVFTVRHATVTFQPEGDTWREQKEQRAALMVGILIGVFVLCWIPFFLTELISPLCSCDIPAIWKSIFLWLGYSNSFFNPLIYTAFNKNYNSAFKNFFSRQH
Chain of Aurora kinase B (Homo sapiens) (Q96GD4 whole entry): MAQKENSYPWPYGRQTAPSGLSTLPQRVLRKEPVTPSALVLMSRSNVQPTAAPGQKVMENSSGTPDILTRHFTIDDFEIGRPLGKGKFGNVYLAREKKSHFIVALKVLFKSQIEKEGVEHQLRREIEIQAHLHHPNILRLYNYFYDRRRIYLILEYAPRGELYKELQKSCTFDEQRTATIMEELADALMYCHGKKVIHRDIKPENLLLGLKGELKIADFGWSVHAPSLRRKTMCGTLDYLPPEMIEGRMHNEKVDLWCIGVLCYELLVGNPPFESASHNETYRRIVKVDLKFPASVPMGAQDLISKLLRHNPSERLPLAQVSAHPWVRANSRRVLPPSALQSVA
Chain of Testis-specific serine/threonine-protein kinase 3 (Homo sapiens) (Q96PN8 whole entry): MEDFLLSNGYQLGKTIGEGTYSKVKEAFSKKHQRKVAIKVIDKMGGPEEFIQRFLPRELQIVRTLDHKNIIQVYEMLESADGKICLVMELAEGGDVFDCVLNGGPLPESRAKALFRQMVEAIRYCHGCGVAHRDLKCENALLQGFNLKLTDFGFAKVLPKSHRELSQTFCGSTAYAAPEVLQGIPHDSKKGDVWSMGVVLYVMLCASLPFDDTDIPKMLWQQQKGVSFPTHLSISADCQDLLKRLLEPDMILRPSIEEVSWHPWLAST

FC(F)(F)c1ccc2c(c1)nc(-c1cccnc1)n2C1CC1 [MSD-CYP11B2-Negative-control]
inactive: residual activity [1] 100% | residual activity [2] 100% | residual activity [3] 100% | residual activity [4] 100% | residual activity [5] 100% | residual activity [6] 100% | residual activity [7] 100% | residual activity [8] 91% | residual activity [9] 100% | residual activity [10] 100% | residual activity [11] 100% | residual activity [12] 92% | residual activity [13] 100% | residual activity [14] 100% | residual activity [15] 83% | residual activity [16] 100% | residual activity [17] 100% | residual activity [18] 100% | residual activity [19] 100% | residual activity [20] 100% | residual activity [21] 100% | residual activity [22] 100% | residual activity [23] 100% | residual activity [24] 100% | residual activity [25] 100% | residual activity [26] 100% | residual activity [27] 100% | residual activity [28] 100% | residual activity [29] 100% | residual activity [30] 100% | residual activity [31] 92% | residual activity [32] 94% | residual activity [33] 100% | residual activity [34] 100% | residual activity [35] 89% | residual activity [36] 100% | residual activity [37] 93% | residual activity [38] 99% | residual activity [39] 100% | residual activity [40] 100% | residual activity [41] 100% | residual activity [42] 100% | residual activity [43] 65% | inhibition [44] -2.64% | inhibition [45] -3.97%

CC(C)(O)c1cncc(-c2nc3ccc(F)cc3n2C2CC2)c1 [MSD-CYP11B2]
inactive: residual activity [1] 100% | residual activity [2] 100% | residual activity [3] 100% | residual activity [4] 100% | residual activity [5] 100% | residual activity [6] 100% | residual activity [7] 95% | residual activity [8] 100% | residual activity [9] 100% | residual activity [10] 100% | residual activity [11] 100% | residual activity [12] 71% | residual activity [13] 100% | residual activity [14] 100% | residual activity [15] 99% | residual activity [16] 100% | residual activity [17] 100% | residual activity [18] 100% | residual activity [19] 100% | residual activity [20] 100% | residual activity [21] 100% | residual activity [22] 100% | residual activity [23] 100% | residual activity [24] 100% | residual activity [25] 100% | residual activity [26] 100% | residual activity [27] 100% | residual activity [28] 100% | residual activity [29] 100% | residual activity [30] 95% | residual activity [31] 96% | residual activity [32] 92% | residual activity [33] 100% | residual activity [34] 100% | residual activity [35] 100% | residual activity [36] 100% | residual activity [37] 86% | residual activity [38] 100% | residual activity [39] 100% | residual activity [40] 100% | residual activity [41] 100% | residual activity [42] 100% | residual activity [43] 84% | inhibition [44] -9.57% | inhibition [45] 0.87%

Reference: ChEMBL document CHEMBL4507294, “Data for DCP probe MSD-CYP11B2” (2021)
